Reference: article PMC4269296 (Nucleosides, nucleotides & nucleic acids, 2015)

Legend:
X4 (IIIB) HIV-1 = test: Single-round; type: cell-based; settings: Human immunodeficiency virus 1, IIIB, MAGI, read-out: Cell-Free Virus X4 EC50
R5 (BaL) HIV-1 = test: Single-round; type: cell-based; settings: Human immunodeficiency virus 1, BAL, MAGI, read-out: Cell-Free Virus R5 EC50
[1] = test system: Cell-Associated Virus (X4); test: Cell-associated transmission assay; type: cell-based, HIV-1; settings: for EC50: Human immunodeficiency virus 1, read-out: Cell-Associated Virus CTC EC50; for Cell-Associated Virus CTC EC50: cell-associated transmission assay (X4)
[2] = test system: X4 and R5 cell free virus; type: cell-based, HIV-1; settings: for EC50: Human immunodeficiency virus 1, read-out: EC50 against X4 and R5 cell free virus
in vitro = settings: human
[3] = test system: HIV infected T4 lymphocytes; settings: read-out: EC50 against HIV infected T4 lymphocytes; cited from earlier work

SMILES | EC50 (X4 (IIIB) HIV-1) | EC50 (R5 (BaL) HIV-1) | EC50 [1] | EC50 [2] | EC50 at 2 h (in vitro) | EC50 [3] | Cell-Associated Virus CTC EC50 [1] | fold higher inhibition against X4 virus than the R5 virus strain ([2]; ratio of R5 and X4 EC50)
Nc1ccn([C@@H]2CS[C@H](CO)O2)c(=O)n1 [3TC (2), (−)-2′,3′-Dideoxy-3′-thiacytidine] | 7.5 µM | 2.6 µM | 18.4 µM | 2.6 to 7.5 µM | > 100 µM | – | – | –
CCSCCCCCCCCCCCC(=O)O [12-Thioethyldodecanoic acid] | – | – | – | – | – | 9.4 µM | – | –
N=C(N)NCCC[C@H](NC(=O)[C@H](CCCNC(=N)N)NC(=O)[C@H](CCCNC(=N)N)NC(=O)[C@H](CCCNC(=N)N)NC(=O)[C@H](CCCNC(=N)N)NC(=O)[C@H](CCCNC(=N)N)NC(=O)[C@H](CCCNC(=N)N)NC(=O)CCCCCCCCCCCCC(=O)OC[C@@H]1O[C@H](n2ccc(N)nc2=O)CS1)C(=O)O [Compound 14, 1-[(−)-2′,3′-Dideoxy-3′-thiacytidine]tetradecan-1,14-dioate conjugate of PolyArg] | – | – | – | – | – | – | >30 µM | approximately 2 fold
N=C(N)NCCC[C@H](NC(=O)[C@H](CCCNC(=N)N)NC(=O)[C@H](CCCNC(=N)N)NC(=O)[C@H](CCCNC(=N)N)NC(=O)[C@H](CCCNC(=N)N)NC(=O)[C@H](CCCNC(=N)N)NC(=O)[C@H](CCCNC(=N)N)NC(=O)CCCCCCCCCCCCC(=O)OC[C@@H]1O[C@H](n2cc(F)c(N)nc2=O)CS1)C(=O)O [Compound 15, 1-[(−)-2′,3′-dideoxy-5-fluoro-3′-thiacytidine]tetradecan-1,14-dioate conjugate of PolyArg] | – | – | – | – | – | – | >30 µM | –
Cc1cn([C@H]2C[C@H](F)[C@@H](CO)O2)c(=O)[nH]c1=O [FLT (1), 3′-Fluoro-2′,3′-deoxythymidine] | 0.2 µM | 0.1 µM | > 100 µM | 0.1 to 0.2 µM | > 100 µM | – | – | –
Nc1nc(=O)n([C@@H]2CS[C@H](CO)O2)cc1F [FTC (3), (−) 2′,3′–Dideoxy-5-fluoro-3′-thiacytidine] | – | – | 21.9 µM | 0.18 to 0.48 µM | > 100 µM | – | – | –
